pIC50: −log10 of the molar value.

One may read the pIC50 as the IC50 on a negative log10 scale, so that one unit is a factor of ten. High values mean a low IC50, low ones a high IC50.

The target in test [1] is T1, casein kinase 1 delta (human CK1 delta PV3665) (Homo sapiens, UniProt P48730).
T1 construct: purchased Invitrogen Corporation PV3665
Briefly: FRET fluorescence test (Z'Lyte kinase assay kit), phosphorylation of peptide substrate SER/THR 11. The following applies: peptide substrate 2 μM, ATP at 4 times the KM. The format is biochemical. The text has this:
The capacity of the compounds of the invention to inhibit the phosphorylation of casein by casein kinase 1 epsilon and casein kinase 1 delta can be evaluated using a FRET (Fluorescence Resonance Energy Transfer) fluorescence test by means of the “Z′Lyte™ kinase assay kit” (reference PV3670; Invitrogen Corporation™) according to the supplier's instructions.
The casein kinases 1 used are obtained from Invitrogen Corporation (human CK1 epsilon PV3500 and human CK1 delta PV3665).
A peptide substrate, labelled at both ends with a fluorophore donor group (coumarin) and a fluorophore acceptor group (fluorescein) constituting a FRET system is phosphorylated in the presence of ATP by casein kinase 1 epsilon or delta in the presence of increasing concentrations of compounds of the invention.
The mixture is treated with a site-specific protease that specifically cleaves the peptide substrate so as to form two fluorescent fragments having a large fluorescence emission ratio.
The fluorescence observed is thus related to the capacity of the products of the invention to inhibit the phosphorylation of the peptide substrate by casein kinase 1 epsilon or casein kinase 1 delta. […]
The emitted fluorescence is measured at wavelengths of 445 and 520 nm (excitation at 400 nm).

Test [2] concerns Mper1-luc Rat-1 (P2C4) fibroblasts. Briefly: Circadian cell assay: mPer1-promoter luciferase reporter, period prolongation. The class given is cell-based. The following applies: effective concentration that induced a 1-hour prolongation of the circadian period. The method, then: Mper1-luc Rat-1 (P2C4) fibroblast cultures were prepared by dividing the cultures every 3-4 days (approximately 10-20% of confluence) on 150 cm^2 degassed polystyrene tissue culture flasks (Falcon® #35-5001) and maintained in growth medium [EMEM (Cellgro #10-010-CV); 10% foetal bovine serum (FBS; Gibco #16000-044); and 50 I.U./ml of penicillin-streptomycin (Cellgro #30-001-CI)] at 37° C. and under 5% CO2.
Cells obtained from Rat-1 fibroblast cultures at 30-50% of confluence as described above were co-transfected with vectors containing the selectable marker for zeocin resistance for a stable transfection and a luciferase reporter gene controlled by the mPer-1 promoter. After 24 to 48 hours, the cultures were divided on 96-well plates and maintained in growth medium supplemented with 50-100 μg/ml of zeocin (Invitrogen® #45-0430) for 10-14 days. The zeocin-resistant stable transfectants were evaluated for the expression of the reporter gene by adding 100 μM luciferin (Promega® #E1603®) to the growth medium and by assaying the luciferase activity on a TopCount® scintillation counter (Packard Model #C384V00). The Rat-1 cell clones expressing both zeocin resistance and luciferase activity controlled by mPer1 were serum-shock synchronized with 50% horse serum [HS (Gibco® #16050-122)] and the activity of the circadian reporter was evaluated. The P2C4 clone of Mper1-luc Rat-1 fibroblasts was selected to test the compound.
Mper1-luc Rat-1 (P2C4) fibroblasts at 40-50% of confluence, obtained according to the protocol described above, were plated out onto 96-well opaque tissue culture plates (Perkin Elmer® #6005680). The cultures are maintained in growth medium supplemented with 100 μg/mL of zeocin (Invitrogen #45-0430) until they have reached 100% of confluence (48-72 h). The cultures were then synchronized with 100 μl of synchronization medium [EMEM (Cellgro #10-010-CV); 100 I.U./ml of penicillin-streptomycin (Cellgro #30-001-C1); HS at 50% (Gibco #16050-122)] for 2 hours at 37° C. and under 5% CO2. After synchronization, the cultures were rinsed with 100 μl of EMEM (Cellgro #10-010-CV) for 10 minutes at ambient temperature. After rinsing, the medium was replaced with 300 μl of CO2 independent medium [CO2I (Gibco #18045-088); 2 mM L-glutamine (Cellgro #25-005-C1); 100 I.U./ml of penicillin-streptomycin (Cellgro #30-001-C1); 100 μM luciferin (Promega #E 1603)]. […]
The period analysis was performed either by determining the interval between the relative light emission minima over several days or by Fourier transform. […] The data were analysed by adjusting a hyperbolic curve to the data expressed as change of period (Y-axis) as a function of the concentration of the test compound (X-axis) in the XLfit™ software, and the CE Delta (t+1 h) was interpolated from this curve.
A general note: A reporter such as luciferase makes a cellular process visible.

T1 sequence (P48730 whole entry): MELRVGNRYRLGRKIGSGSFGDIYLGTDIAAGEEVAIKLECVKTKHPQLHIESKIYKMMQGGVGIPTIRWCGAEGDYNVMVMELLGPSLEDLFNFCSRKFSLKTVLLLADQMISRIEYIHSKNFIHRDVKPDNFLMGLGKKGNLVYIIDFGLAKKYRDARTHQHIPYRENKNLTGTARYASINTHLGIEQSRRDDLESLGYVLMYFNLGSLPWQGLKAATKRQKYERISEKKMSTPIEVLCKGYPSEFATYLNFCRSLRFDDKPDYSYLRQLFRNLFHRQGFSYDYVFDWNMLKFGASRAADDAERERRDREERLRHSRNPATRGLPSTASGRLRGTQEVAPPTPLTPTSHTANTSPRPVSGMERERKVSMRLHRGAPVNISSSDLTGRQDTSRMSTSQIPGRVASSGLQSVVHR

The molecule `OCCN1CCN(c2ccc3nc(-c4ccc(Cl)s4)c(-c4ccncc4)n3n2)CC1` [Compound 14, 2-{4-[2-(5-chlorothien-2-yl)-3-(pyridin-4-yl)imidazo[1,2-b]pyridazin-6-yl](piperazin-1-yl)}ethanol] gave a pIC50 in test [1] of 6.79 to 7.03. Besides, the “CE Delta (t + 1 h)” value in test [2] is 60 to 117 nM.
In turn, `Cc1ccc(-c2nc3ccc(N4CCNCC4)nn3c2-c2ccncc2)s1` [Compound 10, 2-(5-methylthien-2-yl)-6-(piperazin-1-yl)-3-(pyridin-4-yl)imidazo[1,2-b]pyridazine] gave a pIC50 in test [1] of 7.12 to 7.20. In addition, the “CE Delta (t + 1 h)” value in test [2] is 360 nM.

Values taken from patent US20130190314A1, “DERIVATIVES OF 6-CYCLOAMINO-2-THIENYL-3-(PYRIDIN-4-YL)IMIDAZO[1,2-b]-PYRIDAZINE AND 6-CYCLOAMINO-2-FURANYL-3-(PYRIDIN-4-YL)IMIDAZO[1,2-b]-PYRIDAZINE, PREPARATION AND THERAPEUTIC USE THEREOF” (priority 2008, published 2013).
